The numbers were not newly measured in patent US6875793B2, “Once-a-day controlled release sulfonylurea formulation” (Penwest Pharmaceuticals Co., priority 1997, dated 2005), which cites them from elsewhere.

One data set deals with insulin secretion. The conditions noted are these: after an oral dose, diabetic patients.

With `CC(=O)c1ccc(S(=O)(=O)NC(=O)NC2CCCCC2)cc1` [Acetohexamide], the solubility in alcohol result (alcohol) is “slightly soluble”. For the same compound, for the setting “alkali, e.g., 0.1N sodium hydroxide, dilute solutions of alkali hydroxides”, the solubility in alkali entry is listed as “soluble”. Besides, the solubility in water result (water) is on record as “practically insoluble”.

Take `CCCNC(=O)NS(=O)(=O)c1ccc(Cl)cc1` [Chlorpropamide]: the “solubility in water at pH 6.0” value (water, pH 6.0) was 2.2 mg/ml. Moreover, where the note is “water, pH 7.3”, the “solubility in water at pH 7.3” value is reported as “practically non-soluble”. As to `Cc1cnc(C(=O)NCCc2ccc(S(=O)(=O)NC(=O)NC3CCCCC3)cc2)cn1` [Glipizide], the “time to insulinotropic response to a meal” value in the data set on insulin secretion was ≤ 30 min. As for `COc1ccc(Cl)cc1C(=O)NCCc1ccc(S(=O)(=O)NC(=O)NC2CCCCC2)cc1` [Glyburide], under “organic solvents”, the “solubility in organic solvents” value is listed as “soluble”. Also, for the setting “water”, the solubility in water entry is “sparingly soluble”.

Take `Cc1ccc(S(=O)(=O)NC(=O)NN2CCCCCC2)cc1` [Tolazamide]: the “solubility at pH 6.0 (mean urinary pH)” value (pH 6.0) was 27.8 mg per 100 ml. Moreover, where the note is “water”, the solubility in water result is on record as “relatively insoluble”. Regarding `CCCCNC(=O)NS(=O)(=O)c1ccc(C)cc1` [Tolbutamide], under “water”, the solubility in water result is recorded as “practically insoluble”.
